Laboratory results as given in the supplement of paper PMC10307832.

How the values were obtained:
Experiment in all cases: relative viability (nuclei count vs DMSO), 5 days (fraction); higher = more cells survive
[1] = compound: CC(C)N(CCCNC(=O)Nc1ccc(C(C)(C)C)cc1)C[C@H]1O[C@@H](n2ccc3c(N)ncnc32)[C@H](O)[C@@H]1O + Nc1ncn([C@H]2C[C@H](O)[C@@H](CO)O2)c(=O)n1 [Decitabine] (partner 2 µM)
Procedure, shortened: (§1)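 Relative viability equals treated-well nuclei counts divided by vehicle-well nuclei counts. Counts came from 4× images of lung cancer cell lines grown in 1536-well plates for 5 days after pin-tool dosing on the day after seeding. Dosing used one drug alone or a fixed anchor-drug dose plus five library-drug doses (not always all listed) in √10 steps, and values are medians of duplicate plates.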

[2] = compound: CC(C)N(CCCNC(=O)Nc1ccc(C(C)(C)C)cc1)C[C@H]1O[C@@H](n2ccc3c(N)ncnc32)[C@H](O)[C@@H]1O + CC(=O)c1c(C)c2cnc(Nc3ccc(N4CCNCC4)cn3)nc2n(C2CCCC2)c1=O [Palbociclib] (partner 0.5 µM)
Procedure, shortened: as §1

[3] = compound: CC(C)=CC[C@@H](O)C1=CC(=O)c2c(O)ccc(O)c2C1=O [Shikonin] + C[C@]1(O)C[C@@H](c2nc(-c3ccc4ccc(-c5ccccc5)nc4c3)c3c(N)nccn32)C1 [Linsitinib] (partner 1 µM)
Procedure, shortened: as §1

[4] = compound: CC(C)=CC[C@@H](O)C1=CC(=O)c2c(O)ccc(O)c2C1=O [Shikonin] + C[C@@H](Oc1cc(-c2cnn(C3CCNCC3)c2)cnc1N)c1c(Cl)ccc(F)c1Cl [Crizotinib] (partner 1 µM)
Procedure, shortened: as §1

Cell Line: PC-3 [JPC-3]
- relative viability ([1]; first compound 0.08 µM): 0.766
- relative viability ([1]; first compound 0.253 µM): 0.726
- relative viability ([1]; first compound 2.53 µM): 0.799
- relative viability ([1]; first compound 8 µM): 0.864
- relative viability ([2]; first compound 0.08 µM): 0.54
- relative viability ([2]; first compound 0.253 µM): 0.53
- relative viability ([2]; first compound 2.53 µM): 0.507
- relative viability ([2]; first compound 8 µM): 0.487
- relative viability ([3]; first compound 0.01 µM): 0.923
- relative viability ([3]; first compound 0.1 µM): 1.07
- relative viability ([3]; first compound 0.3162 µM): 0.951
- relative viability ([3]; first compound 1 µM): 1.03
- relative viability ([4]; first compound 0.01 µM): 1.03
- relative viability ([4]; first compound 0.1 µM): 1.14
- relative viability ([4]; first compound 0.3162 µM): 1.03
- relative viability ([4]; first compound 1 µM): 0.986

Cell Line: PC-14
- relative viability ([1]; first compound 0.08 µM): 0.191
- relative viability ([1]; first compound 0.253 µM): 0.246
- relative viability ([1]; first compound 0.8 µM): 0.215
- relative viability ([1]; first compound 2.53 µM): 0.231
- relative viability ([1]; first compound 8 µM): 0.206
- relative viability ([2]; first compound 0.08 µM): 0.467
- relative viability ([2]; first compound 0.253 µM): 0.439
- relative viability ([2]; first compound 0.8 µM): 0.586
- relative viability ([2]; first compound 2.53 µM): 0.444
- relative viability ([2]; first compound 8 µM): 0.496
- relative viability ([3]; first compound 0.01 µM): 0.978
- relative viability ([3]; first compound 0.1 µM): 0.997
- relative viability ([3]; first compound 0.3162 µM): 1.12
- relative viability ([3]; first compound 1 µM): 0.983
- relative viability ([4]; first compound 0.01 µM): 0.984
- relative viability ([4]; first compound 0.1 µM): 1.02
- relative viability ([4]; first compound 0.3162 µM): 0.841
- relative viability ([4]; first compound 1 µM): 1.03

Cell Line: RERF-LC-KJ
- relative viability ([1]; first compound 0.08 µM): 0.703
- relative viability ([1]; first compound 0.253 µM): 0.685
- relative viability ([1]; first compound 0.8 µM): 0.715
- relative viability ([1]; first compound 2.53 µM): 0.639
- relative viability ([1]; first compound 8 µM): 0.693
- relative viability ([2]; first compound 0.08 µM): 1.01
- relative viability ([2]; first compound 0.253 µM): 1.07
- relative viability ([2]; first compound 0.8 µM): 1.18
- relative viability ([2]; first compound 2.53 µM): 1.17
- relative viability ([2]; first compound 8 µM): 1.07
- relative viability ([3]; first compound 0.01 µM): 0.985
- relative viability ([3]; first compound 0.1 µM): 0.896
- relative viability ([3]; first compound 0.3162 µM): 0.867
- relative viability ([3]; first compound 1 µM): 0.953
- relative viability ([4]; first compound 0.01 µM): 0.945
- relative viability ([4]; first compound 0.1 µM): 0.91
- relative viability ([4]; first compound 0.3162 µM): 0.829
- relative viability ([4]; first compound 1 µM): 0.899

Cell Line: SK-LU-1
- relative viability ([1]; first compound 0.08 µM): 0.626
- relative viability ([1]; first compound 0.253 µM): 0.642
- relative viability ([1]; first compound 0.8 µM): 0.657
- relative viability ([1]; first compound 2.53 µM): 0.702
- relative viability ([1]; first compound 8 µM): 0.568
- relative viability ([2]; first compound 0.08 µM): 0.431
- relative viability ([2]; first compound 0.253 µM): 0.42
- relative viability ([2]; first compound 0.8 µM): 0.332
- relative viability ([2]; first compound 2.53 µM): 0.389
- relative viability ([2]; first compound 8 µM): 0.36
- relative viability ([3]; first compound 0.01 µM): 1.26
- relative viability ([3]; first compound 0.1 µM): 1.27
- relative viability ([3]; first compound 0.3162 µM): 0.999
- relative viability ([3]; first compound 1 µM): 1.01
- relative viability ([4]; first compound 0.01 µM): 1.11
- relative viability ([4]; first compound 0.1 µM): 0.937
- relative viability ([4]; first compound 0.3162 µM): 0.928
- relative viability ([4]; first compound 1 µM): 0.877

Cell Line: SK-MES-1
- relative viability ([1]; first compound 0.08 µM): 0.436
- relative viability ([1]; first compound 0.253 µM): 0.377
- relative viability ([1]; first compound 0.8 µM): 0.36
- relative viability ([1]; first compound 2.53 µM): 0.384
- relative viability ([1]; first compound 8 µM): 0.377
- relative viability ([2]; first compound 0.08 µM): 0.317
- relative viability ([2]; first compound 0.253 µM): 0.357
- relative viability ([2]; first compound 0.8 µM): 0.309
- relative viability ([2]; first compound 2.53 µM): 0.375
- relative viability ([2]; first compound 8 µM): 0.325
- relative viability ([3]; first compound 0.01 µM): 1.18
- relative viability ([3]; first compound 0.1 µM): 1.06
- relative viability ([3]; first compound 0.3162 µM): 1.04
- relative viability ([3]; first compound 1 µM): 1.08
- relative viability ([4]; first compound 0.01 µM): 1.11
- relative viability ([4]; first compound 0.1 µM): 1.05
- relative viability ([4]; first compound 0.3162 µM): 1.08
- relative viability ([4]; first compound 1 µM): 1.11

Cell Line: SW 1573
- relative viability ([1]; first compound 0.08 µM): 0.464
- relative viability ([1]; first compound 0.8 µM): 0.636
- relative viability ([1]; first compound 2.53 µM): 0.512
- relative viability ([1]; first compound 8 µM): 0.543
- relative viability ([2]; first compound 0.08 µM): 0.377
- relative viability ([2]; first compound 0.253 µM): 0.431
- relative viability ([2]; first compound 0.8 µM): 0.419
- relative viability ([2]; first compound 2.53 µM): 0.401
- relative viability ([2]; first compound 8 µM): 0.336
- relative viability ([3]; first compound 0.01 µM): 0.968
- relative viability ([3]; first compound 0.1 µM): 0.772
- relative viability ([3]; first compound 0.3162 µM): 0.887
- relative viability ([3]; first compound 1 µM): 0.626
- relative viability ([4]; first compound 0.01 µM): 0.906
- relative viability ([4]; first compound 0.1 µM): 0.867
- relative viability ([4]; first compound 0.3162 µM): 0.889
- relative viability ([4]; first compound 1 µM): 0.741
